The experiment has as its system WT Mtb Erdman strain. Description: Microplate Alamar Blue Assay (MABA). The experiment is classed as cell-based. The note with it: Mycobacterium tuberculosis; for MIC50: read-out: MABA MIC50; for MIC90: read-out: MABA MIC90. For orientation: The colour change of resazurin is a common sign of viable cells or microbes.
The mark [1] stands for this setting: concentration that inhibits mycobacterial survival by 50%, Middlebrook 7H9 media, 7 days at 37° C., resazurin 24 hours.
Where [2] appears, read: concentration that inhibits mycobacterial survival by 90%, Middlebrook 7H9 media, 7 days at 37° C., resazurin 24 hours.

Usually MIC50 stands for the lowest concentration that inhibits either 50% of growth or 50% of the strains tested, depending on the study. A word on the MIC90: it is an inhibitory concentration at the 90% level, which refers to growth in some studies and to a panel of isolates in others.

In brackets after ≈: the same amount, converted by molar mass. Structures can show the parent of a compound that is named as a salt. Where two headings read alike, the source gives them in different places.

Take `CCCCNc1nc(CC)nc2sc(C)cc12` [Example 0728, N-butyl-2-ethyl-6-methylthieno[2,3-d]pyrimidin-4-amine]: the MIC50 under setting [1] turned out to be 0.182 µM (≈ 0.0454 µg/mL). Besides, under setting [2], the MIC90 stood at 0.524 µM (≈ 0.131 µg/mL).

For `Cc1nc(NCc2ccccc2)c2c(C)c(C)sc2n1` [Example 0795, N-Benzyl-2,5,6-trimethylthieno[2,3-d]pyrimidin-4-amine], the MIC50 under setting [1] is 25.4 µM (≈ 7.2 µg/mL). Moreover, under setting [2], the MIC90 came to 28.4 µM (≈ 8.05 µg/mL).

With `CCCCNc1nc(C)nc2sc(C)c(C)c12` [Example 0796, N-butyl-2,5,6-trimethylthieno[2,3-d]pyrimidin-4-amine trifluoroacetate], the MIC50 was greater than 50 µM and the MIC90 was greater than 50 µM.

Take `Cc1nc(Nc2ccccc2)c2c(C)c(C)sc2n1` [Example 0797, 2,5,6-Trimethyl-N-phenylthieno[2,3-d]pyrimidin-4-amine]: the MIC50 under setting [1] was greater than 50 µM. Further, the MIC90 under setting [2] was greater than 50 µM.

Take `Cc1nc(NCCc2ccccc2)c2c(C)c(C)sc2n1` [Example 0798, 2,5,6-Trimethyl-N-(2-phenylethyl)thieno[2,3-d]pyrimidin-4-amine]: the MIC50 under setting [1] is 27.4 µM (≈ 8.15 µg/mL). The MIC90 under setting [2] was found to be 32.9 µM (≈ 9.79 µg/mL).

In the case of `CCc1nc(NC(C(=O)O)C(C)C)c2cc(C)sc2n1` (centres unmarked) [Example 0851, 2-({2-ethyl-6-methylthieno[2,3-d]pyrimidin-4-yl}amino)-3-methylbutanoic acid], the MIC50 under setting [1] was greater than 50 µM. Also, under setting [2], the MIC90 was greater than 50 µM.

On to `CCc1nc(NCCCN(C)C)c2cc(C)sc2n1` [Example 0935, [3-({2-ethyl-6-methylthieno[2,3-d]pyrimidin-4-yl}amino)propyl]dimethylamine], for which, under setting [1], the MIC50 is greater than 50 µM. Moreover, under setting [2], the MIC90 was greater than 50 µM.

Take `CCc1nc(NCCCC(F)(F)F)c2cc(C)sc2n1` [Example 1020, 2-Ethyl-6-methyl-N-(4,4,4-trifluorobutyl)thieno[2,3-d]pyrimidin-4-amine]: the MIC50 under setting [1] amounted to 0.116 µM (≈ 0.0352 µg/mL). Further, the MIC90 under setting [2] turned out to be 0.163 µM (≈ 0.0494 µg/mL).

Consider `CCc1nc(NCCCc2ccccc2)c2cc(C)sc2n1` [Example 1023, 2-Ethyl-6-methyl-N-(3-phenylpropyl)thieno[2,3-d]pyrimidin-4-amine], for which, under setting [1], the MIC50 was 0.0266 µM (≈ 0.00828 µg/mL). Further, under setting [2], the MIC90 is 0.108 µM (≈ 0.0336 µg/mL).

Consider `Cc1cc2c(NC3CC3)nc(-c3ccccc3)nc2s1` [Example 1062, N-Cyclopropyl-6-methyl-2-phenyl-thieno[2,3-d]pyrimidin-4-amine], for which the MIC50 under setting [1] was 2.88 µM (≈ 0.81 µg/mL). Also, the MIC90 under setting [2] was found to be 6.01 µM (≈ 1.69 µg/mL).

Take `Cc1cc2c(NC3CC3)nc(Cc3ccc(F)cc3)nc2s1` [Example 1063, N-Cyclopropyl-2-[(4-fluorophenyl)methyl]-6-methyl-thieno[2,3-d]pyrimidin-4-amine]: under setting [1], the MIC50 stood at 21 µM (≈ 6.58 µg/mL). The MIC90 under setting [2] was determined as 41.7 µM (≈ 13.1 µg/mL).

As to `CCc1nc(NC2CC2)c2oc3ccccc3c2n1` [Example 1142, N-cyclopropyl-2-ethyl-benzofuro[3,2-d]pyrimidin-4-amine], the MIC50 under setting [1] is 8.37 µM (≈ 2.12 µg/mL). The MIC90 under setting [2] is 24.8 µM (≈ 6.28 µg/mL).

For `CCc1nc(NC2CC2)c2cc(Br)sc2n1` [Example 1146, 6-Bromo-N-cyclopropyl-2-ethyl-thieno[2,3-d]pyrimidin-4-amine], the MIC50 under setting [1] was 5.98 µM (≈ 1.78 µg/mL). In addition, under setting [2], the MIC90 was found to be 13.8 µM (≈ 4.12 µg/mL).

In the case of `CCc1nc(NC2CC2)c2cc(-c3ccccc3)sc2n1` [Example 1150, N-Cyclopropyl-2-ethyl-6-phenyl-thieno[2,3-d]pyrimidin-4-amine], under setting [1], the MIC50 amounted to 21.1 µM (≈ 6.23 µg/mL). For the same molecule, the MIC90 under setting [2] came out at 23.1 µM (≈ 6.82 µg/mL).

Take `Cc1nc(NC2CC2)c2oc3ccccc3c2n1` [Example 1151, N-Cyclopropyl-2-methyl-benzofuro[3,2-d]pyrimidin-4-amine]: under setting [1], the MIC50 was determined as 11.1 µM (≈ 2.66 µg/mL). For the same molecule, under setting [2], the MIC90 is 33.9 µM (≈ 8.11 µg/mL).

For `C=C(C)c1cc2c(NC3CC3)nc(CC)nc2s1` [Example 1154, N-Cyclopropyl-2-ethyl-6-(prop-1-en-2-yl)thieno[2,3-d]pyrimidin-4-amine], the MIC50 under setting [1] was 45.9 µM (≈ 11.9 µg/mL). Further, the MIC90 under setting [2] is greater than 50 µM.

For the molecule `CCc1nc(NC2CC2)c2cc(C3CC3)sc2n1` [Example 1161, N,6-Dicyclopropyl-2-ethyl-thieno[2,3-d]pyrimidin-4-amine], under setting [1], the MIC50 came to 31.3 µM (≈ 8.12 µg/mL). Besides, under setting [2], the MIC90 worked out at 36.3 µM (≈ 9.42 µg/mL).

With `CCCCNc1nc(CC)nc2sccc12` [Example 1176, N-butyl-2-ethyl-thieno[2,3-d]pyrimidin-4-amine], the MIC50 under setting [1] came out at 3.8 µM (≈ 0.894 µg/mL). The MIC90 under setting [2] was found to be 14.4 µM (≈ 3.39 µg/mL).

In the case of `CCc1nc(NC2CC2)c2cc(C(F)(F)F)sc2n1` [Example 1177, N-Cyclopropyl-2-ethyl-6-(trifluoromethyl)thieno[2,3-d]pyrimidin-4-amine], under setting [1], the MIC50 worked out at 30.8 µM (≈ 8.85 µg/mL). Under setting [2], the MIC90 is greater than 50 µM.

In the case of `CCc1nc(NC2CC2)c2cc(Cl)sc2n1` [Example 1181, 6-Chloro-N-cyclopropyl-2-ethyl-thieno[2,3-d]pyrimidin-4-amine], the MIC50 under setting [1] was determined as 3.06 µM (≈ 0.776 µg/mL). In addition, the MIC90 under setting [2] came to 7.64 µM (≈ 1.94 µg/mL).

As to `Cc1nc(NCCCc2ccccc2)c2oc3ccccc3c2n1` [Example 1299, 2-Methyl-N-(3-phenylpropyl)benzofuro[3,2-d]pyrimidin-4-amine], under setting [1], the MIC50 came to 0.128 µM (≈ 0.0406 µg/mL). The MIC90 under setting [2] was found to be 0.188 µM (≈ 0.0597 µg/mL).

Consider `CCc1nc(NCCCc2ccccc2)c2oc3ccccc3c2n1` [Example 1300, 2-Ethyl-N-(3-phenylpropyl)benzofuro[3,2-d]pyrimidin-4-amine], for which the MIC50 under setting [1] worked out at 0.164 µM (≈ 0.0544 µg/mL). Moreover, the MIC90 under setting [2] came out at 0.389 µM (≈ 0.129 µg/mL).

In the case of `CCCCNc1nc(CC)nc2c1oc1ccccc12` [Example 1301, N-Butyl-2-ethylbenzofuro[3,2-d]pyrimidin-4-amine], the MIC50 under setting [1] was 3.8 µM (≈ 1.02 µg/mL). In addition, under setting [2], the MIC90 was 8.97 µM (≈ 2.42 µg/mL).

For the molecule `CCc1nc(NCc2ccc(Cl)cc2)c2cc(C)sc2n1` [Example 1302, N-(4-Chlorobenzyl)-2-ethyl-6-methylthieno[2,3-d]pyrimidin-4-amine], the MIC50 under setting [1] was 2.63 µM (≈ 0.836 µg/mL). Moreover, the MIC90 under setting [2] worked out at 5.54 µM (≈ 1.76 µg/mL).

`CCc1nc(NCc2ccccc2)c2cc(C)sc2n1` [Example 1303, N-Benzyl-2-ethyl-6-methylthieno[2,3-d]pyrimidin-4-amine]: under setting [1], the MIC50 was 10.6 µM (≈ 3 µg/mL). Also, under setting [2], the MIC90 was found to be 20.8 µM (≈ 5.89 µg/mL).

Regarding `CCc1nc(Nc2ccccc2)c2cc(C)sc2n1` [Example 1304, 2-Ethyl-6-methyl-N-phenylthieno[2,3-d]pyrimidin-4-amine], under setting [1], the MIC50 worked out at 25.2 µM (≈ 6.79 µg/mL). Also, under setting [2], the MIC90 came out at 41.6 µM (≈ 11.2 µg/mL).

Turning to `CCc1nc(NCCCc2ccccc2)c2ccsc2n1` [Example 1305, 2-Ethyl-N-(3-phenylpropyl)thieno[2,3-d]pyrimidin-4-amine], the MIC50 under setting [1] is 0.113 µM (≈ 0.0336 µg/mL). In addition, under setting [2], the MIC90 is 0.145 µM (≈ 0.0431 µg/mL).

Regarding `CCc1nc(NCCc2ccccc2)c2cc(C)sc2n1` [Example 1306, 2-Ethyl-6-methyl-N-phenethylthieno[2,3-d]pyrimidin-4-amine], the MIC50 under setting [1] came out at 0.125 µM (≈ 0.0372 µg/mL). Under setting [2], the MIC90 was 0.183 µM (≈ 0.0544 µg/mL).

With `CCc1nc(NCCc2ccc(Cl)cc2Cl)c2cc(C)sc2n1` [Example 1307, N-[2-(2,4-Dichlorophenyl)ethyl]-2-ethyl-6-methylthieno[2,3-d]pyrimidin-4-amine], under setting [1], the MIC50 came to 0.526 µM (≈ 0.193 µg/mL). The MIC90 under setting [2] is 1.18 µM (≈ 0.432 µg/mL).

On to `CCc1nc(NCc2ccccn2)c2cc(C)sc2n1` [Example 1308, 2-Ethyl-6-methyl-N-(2-pyridylmethyl)thieno[2,3-d]pyrimidin-4-amine], for which, under setting [1], the MIC50 was 21.6 µM (≈ 6.14 µg/mL). Moreover, the MIC90 under setting [2] stood at 31.6 µM (≈ 8.99 µg/mL).

Turning to `Cc1cc2c(NCCCc3ccccc3)nc(C(F)(F)F)nc2s1` [Example 1536, 6-Methyl-N-(3-phenylpropyl)-2-(trifluoromethyl)thieno[2,3-d]pyrimidin-4-amine], the MIC50 under setting [1] was found to be 0.386 µM (≈ 0.136 µg/mL). For the same molecule, the MIC90 under setting [2] worked out at 0.479 µM (≈ 0.168 µg/mL).

In the case of `FC(F)(F)c1nc(NCCCc2ccccc2)c2ccsc2n1` [Example 1537, N-(Phenylpropyl)-2-(trifluoromethyl)thieno[2,3-d]pyrimidin-4-amine], under setting [1], the MIC50 turned out to be 0.439 µM (≈ 0.148 µg/mL). Under setting [2], the MIC90 is 1.14 µM (≈ 0.385 µg/mL).

Turning to `Cc1cc2c(NCCCc3ccccc3)nc(C(F)(F)C(F)(F)F)nc2s1` [Example 1538, 6-Methyl-2-(1,1,2,2,2-pentafluoroethyl)-N-(3-phenylpropyl)thieno[2,3-d]pyrimidin-4-amine], the MIC50 under setting [1] is 0.597 µM (≈ 0.24 µg/mL). The MIC90 under setting [2] was 1.1 µM (≈ 0.442 µg/mL).

On to `FC(F)(F)C(F)(F)c1nc(NCCCc2ccccc2)c2ccsc2n1` [Example 1539, 2-(1,1,2,2,2-Pentafluoroethyl)-N-(3-phenylpropyl)thieno[2,3-d]pyrimidin-4-amine], for which the MIC50 under setting [1] was determined as 4.9 µM (≈ 1.9 µg/mL). Under setting [2], the MIC90 is 7.36 µM (≈ 2.85 µg/mL).

Consider `Cc1cc2c(NC3CC3)nc(C(F)(F)F)nc2s1` [Example 1540, N-Cyclopropyl-6-methyl-2-(trifluoromethyl)thieno[2,3-d]pyrimidin-4-amine], for which the MIC50 under setting [1] was 1.81 µM (≈ 0.495 µg/mL). Besides, the MIC90 under setting [2] was determined as 4.79 µM (≈ 1.31 µg/mL).

For `Cc1cc2c(NC3CC3)nc(C(F)(F)C(F)(F)F)nc2s1` [Example 1542, N-Cyclopropyl-6-methyl-2-(perfluoroethyl)thieno[2,3-d]pyrimidin-4-amine], under setting [1], the MIC50 amounted to 5.28 µM (≈ 1.71 µg/mL). Under setting [2], the MIC90 was determined as 10.1 µM (≈ 3.27 µg/mL).

As for `FC(F)(F)C(F)(F)c1nc(NC2CC2)c2ccsc2n1` [Example 1543, N-Cyclopropyl-2-(perfluoroethyl)thieno[2,3-d]pyrimidin-4-amine], the MIC50 under setting [1] is 26.9 µM (≈ 8.32 µg/mL). In addition, the MIC90 under setting [2] was determined as 29.6 µM (≈ 9.15 µg/mL).

Regarding `CCCCNc1nc(C(F)(F)F)nc2sc(C)cc12` [Example 1544, N-Butyl-6-methyl-2-(trifluoromethyl)thieno[2,3-d]pyrimidin-4-amine], the MIC50 under setting [1] came out at 1.14 µM (≈ 0.33 µg/mL). In addition, the MIC90 under setting [2] came out at 3.69 µM (≈ 1.07 µg/mL).

As to `CCCCNc1nc(C(F)(F)C(F)(F)F)nc2sc(C)cc12` [Example 1546, N-Butyl-6-methyl-2-(perfluoroethyl)thieno[2,3-d]pyrimidin-4-amine], the MIC50 under setting [1] was found to be 11.2 µM (≈ 3.8 µg/mL). Under setting [2], the MIC90 was 12.4 µM (≈ 4.21 µg/mL).

Take `CCCCNc1nc(C(F)(F)C(F)(F)F)nc2sccc12` [Example 1547, N-Butyl-2-(perfluoroethyl)thieno[2,3-d]pyrimidin-4-amine]: the MIC50 under setting [1] came out at 21.9 µM (≈ 7.12 µg/mL). Under setting [2], the MIC90 was 23.8 µM (≈ 7.74 µg/mL).

For the origin of these results see patent publication US20220117968A1, “THIENO[2,3-D)PYRIMIDINES AND BENZOFURO(3,2-D)PYRIMIDINES AS ANTIMICROBIAL AGENTS” (Saint Louis University, priority 2017, published 2022).
